# Literature values, collected in patent US20170002035A1, “NOVEL CRYSTALLINE FORMS OF AN ANTIVIRAL BENZIMIDAZOLE COMPOUND” (GlaxoSmithKline LLC, priority 1998, published 2017).
# Details: amorphous material as disclosed in WO96/01833
structure (smiles),measurement,value
"CC(C)Nc1nc2cc(Cl)c(Cl)cc2n1[C@H]1O[C@@H](CO)[C@H](O)[C@@H]1O [Form 1263W94, 5,6-dichloro-2-(isopropylamino)-1-(β-L-ribofuranosyl)-1H-benzimidazole]",hygroscopicity,hygroscopic
